Experiment [1] has as its system human platelets. Briefly: SDF-1 induced calcium flux in fura-2 loaded platelets. In kind it is cell-based. As to conditions: SDF-1 50-100 nM, fura-2 340/380 ratio. On the procedure: Calcium flux. Fura-2 loaded platelets were prepared from acid citrate dextrose anti-coagulated blood (Rink et al., J. Physiol. 393: 513-24, 1987). PRP was collected by centrifugation for 15 minutes at 200 g and 100 μM aspirin was added. Platelets were then loaded with fura-2 by incubating PRP with 2 μM acetoxymethyl ester of fura-2 (fura-2 AM; Molecular Probes, Inc., Eugene, Oreg.) for 45 minutes at 37° C. in the dark. PRP was then centrifuged at 1500 g for 10 minutes and the pellet washed and resuspended in a buffer containing 145 mM NaCl, 4 mM KCl, 1 mM NaH2PO4, 0.8 mM MgCl2, 1.8 mM CaCl2, 25 mM Hepes and 22 mM glucose. Changes in cytosolic free calcium were determined after addition of SDF-1 (500 or 1000 ng/ml) by monitoring the excitation fluorescence intensity emitted at 510 nm in response to sequential excitation at 340 nm and 380 nm using a Delta RAM (Random Access Monochromator) fluorimeter (Photon Technology International, Monmouth Junction, N.J.). The data are presented as the relative ratio of fluorescence at 340/380 nm.

Experiment [2] deals with resting T-cells, monocytes, B cell precursors, natural killer cells and CD34+ stem cells. As to conditions: Bleul et al. 1996; Campbell et al. 1998; cited from earlier work.
In experiment [3] the test system is human platelets. Nature of the experiment: Chemokine-induced platelet aggregation in platelet rich plasma (aggregometer). In kind it is cell-based. How it is done: (§1) Blood collection and platelet preparation. Human blood was collected from antecubital veins of healthy male or female, aspirin-free volunteers into syringes containing heparin (10 units/ml final concentration) for flow cytometry studies or sodium citrate (0.38% final concentration) for aggregation studies. Platelet rich plasma (PRP) was prepared by centrifugation of whole blood at 150 g for 15 minutes. Platelet poor plasma (PPP) was prepared by centrifugation of PRP at 1200 g for 15 minutes.
(§2) Aggregation studies. Experiments were performed using a Chrono-Log model 560 vs or 490-2D aggregometer (Havertown, Pa.). Aliquots of PRP (0.50 ml or 0.45 ml) with a platelet concentration of […] were incubated at 37° C. and stirred at 1000 rpm. Chemokines (PeproTech Inc., Rocky Hill, N.J., except SDF-1β, which was obtained from Genetics Institute, Boston, Mass.) were added and aggregation was measured as a percent change in optical density, with the instrument calibrated to yield 0% change in optical density for PRP and with the PPP 100% standard for change in optical density. Aggregation scale was set so that maximal aggregation gave 85-90% chart deflection. Inhibition experiments were done using CXCR4 mAb 12G5 (R&D, Minneapolis, Minn.), polyclonal anti-SDF-1 (R&D, Minneapolis, Minn.), pertussis toxin (Sigma, St. Louis, Mo.), wortmannin (Sigma), genestein (Sigma), and aspirin (Sigma). DMSO was used as vehicle for genestein and wortmannin and 1N NaOH was used as a vehicle for aspirin.

In experiment [4] the test system is SDF-1 induced platelet aggregation. Nature of the experiment: Inhibition of SDF-1 induced platelet aggregation. In kind it is cell-based, human. On the procedure:
as §1, §2

On to “SDF-1: chemokine stromal derived factor-1; α or β form not specified at the place”, for which the “increase in cytosolic calcium” value with human platelets [1] is “induced an increase in cytosolic calcium”. Moreover, the “concentration giving maximal chemotaxis” value in experiment [2] was 10 to 100 nM. Moreover, in the experiment on human platelets [3] (40 nM chemokine, FIG. 1A), the “induction of platelet aggregation” value is “induced platelet aggregation”. Moreover, in the experiment on human platelets [3] (out of twelve donors tested), the “donors responding with only primary aggregation” value was “two”; the “donors with full primary and secondary aggregation response” value was “ten”.
In the case of `O=c1c(-c2ccc(O)cc2)coc2cc(O)cc(O)c12` [Genestein, genestein], the “effect on SDF-1 induced platelet aggregation” value (“effect” for short) in experiment [4] (genestein 200 μM, 5 minutes preincubation, FIG. 5B) was “decreased SDF-1 platelet aggregation”.
For pertussis toxin, the “effect” value in experiment [4] (pertussis toxin 1.7 nM, 30 minute preincubation, SDF-1α 80 ng/ml, FIG. 4B) is “blocked”.
For the compound SDF-1α, in the experiment with human platelets [3] (FIGS. 1B and 1C), the “concentration at which a primary and secondary response was observed” value lay in the range of 12.5 to 25 nM; the “concentration that only induced the primary phase of aggregation” value is reported as 6.2 nM.
Turning to `CC(=O)Oc1ccccc1C(=O)O` [Aspirin, aspirin], in experiment [4] (aspirin 1 mM, FIG. 5A), the “effect” value is “inhibited SDF-1 induced secondary aggregation”.

These data come from patent US20010033841A1, “Modulating platelet function” (priority 1998, published 2001).
